In patent US9533969B2, “Materials and method for inhibiting replication protein A and uses thereof” (Indiana University Research and Technology Corp., priority 2010, dated 2017):
Several values for one entry are separate records, joined by “and”; a condition that tells them apart may be missing. Identical values can stand only once. One block for each compound: values may come before it.

What was measured:
[1] = test system: H460 NSCLC cell line; assay: Annexin V/PI flow cytometry, induction of cell death; assay type: cell-based, human; details: H460 cells; for IC50: Homo sapiens, NCI-H460, 48 hour exposure, annexinV/PI staining, read-out: IC50 (μM) Cellular
Method: (§1) H460 cells were analyzed for apoptosis using an Annexin V-FITC/Propidium iodide (PI) Vybrant Apoptosis Assay Kit (Invitrogen), according to manufacturer's instructions. Cells were plated at a density of 1×10^4 cells per cm^2 and allowed to adhere for 24 hours and then treated with compound TDLR-505 for 48 hours. Following plating and treatment of H460 cells as described above, adherent and non-adherent cells were collected, processed, and analyzed on a BD FACScan flow cytometer. Data was analyzed using WinMDI software (http://facs.scripps.edu/software.html). Cell cycle analysis was performed by PI staining Briefly, cells were plated and treated with compound collected and then washed twice with PBS-EDTA supplemented with 1% BSA. Cells were fixed in 70% EtOH at −20° C. while vortexing followed by incubation on ice for 30 minutes. Cells were then collected and stained with PI solution (10 μg/mL PI and 25 μg/mL RNaseA in PBS-EDTA supplemented with 1% BSA). Cells were analyzed on a Becton Dickinson FACScan flow cytometer. Cells were gated and analyzed on a histogram with events plotted against the FL2-A parameter. Cell cycle distribution was analyzed using ModFit software. G2 arrest was induced by treatment with 0.8 μg/mL nocodazole for 12 hours (10). Cells were then washed with PBS and treated with either vehicle or compound TDLR-505 (100 μM). Cells were harvested and analyzed for cell cycle distribution as described above.
(§2) Referring now to TABLE 1, the in vitro IC50 was determined by EMSA analysis as described in FIG. 1A. The cellular IC50 value was determined by treating H460 cells with the indicated compounds and analyzing annexinV/PI staining as described in Methods. The in vitro and cellular data was analyzed using standard 4 parameter logistic-curve. The IC50 values and standard error of the fit were determined from this analysis.
Referring now to FIGS. 4A, 4B, 4C and 4D, the effects of compound TDRL-505 on induction of cell death and cell cycle progression in a H460 NSCLC cell line was measured. Briefly, H460 cells were treated with compound TDRL-505 for 48 hours and analyzed for cell viability via staining with AnnexinV/PI and presented as dot plots (see FIG. 3A). Referring now to FIG. 4B, the data from FIG. 4A was quantified and the percentage of Annexin-/PI-cells (lower left quadrant), indicating live cells, was calculated. The average±SD (N=4) are presented and the data was fit to a 4-parameter logistic curve.

[2] = target: Human RPA (Homo sapiens (Human), UniProt P27694); assay: EMSA of inhibition of RPA binding to ssDNA; details: for IC50: 25 nM RPA, 34-base DNA, 4 parameter logistic fit, read-out: IC50 (μM) In vitro; for inhibition at 100 µM: read-out: inhibition at the highest concentration tested
Method: Small molecule inhibitors were obtained from ChemDiv and resuspended in DMSO. Compound TDLR-505 was independently synthesized and structure confirmed by mass spectrometry analysis. Human RPA was purified using an E. coli over expression system as previously described (7). EMSAs were performed in 20 μL reactions containing 25 nM RPA, 25 nM 5′[^32P]-labeled 34-base […] DNA as previously described (7). The final concentration of DMSO was 1%.
as §2
Referring now to FIGS. 2C, D and E, EMSA analysis of compound TDLR-505, briefly, increasing concentrations of compound TDRL-505 were pre-incubated with RPA and DNA binding activity was assessed via EMSA using a 34-base ssDNA substrate. Referring now to FIG. 2D, the average and standard deviation of each point are presented. The data was fit to a standard 4 parameter logistic curve with an N=4.

[3] = test system: H460 NSCLC cells; assay: Cell cycle distribution by PI flow cytometry; assay type: cell-based, human
Method: as §1, with “Cells were then collected and stained with PI solution (10 μg/mL PI and 25 μg/mL RNaseA in PBS-EDTA supplemented with 1% BSA).” left out, “G2 arrest was induced by treatment with 0.8 μg/mL nocodazole for 12 hours (10). Cells were then washed with PBS and treated with either vehicle or compound TDLR-505 (100 μM).” left out
Referring now to FIG. 5A. H460 NSCLC cells were treated with 0 and 75 μM of compound TDLR-505 for 48 hours and then analyzed for cell cycle distribution using flow cytometry. […] Cells were then harvested and analyzed for cell cycle distribution using flow cytometry. […]

[4] = test system: NOD/SCID mice; details: mouse, in vivo
Method: Mice were monitored for signs of overt toxicity and bodyweights measured three times per week. Mice were sacrificed and gross necroscopy performed to assess organ weights and inspected for signs of toxicity. […] NOD/SCID mice were then implanted with 5×10^6 H460 cells in 0.2 ml of 50% Matrigel subcutaneously. Tumors were allowed to develop for 7 days and TDRL-505 was administered via oral gavage 2× per week for one week. Tumor volumes were calculated by measuring the width and the length of the tumors and using these measurements in the equation: vol.=1×w^2/2.
Referring now to Table 3. […] Oral dosing in 0.1% Tween 80/methylcellulose was also well tolerated up to 800 mg/kg.

[5] = test system: peripheral blood mononuclear cells (PBMCs); assay: Cytotoxicity in freshly isolated PBMCs; assay type: cell-based; details: non-cancerous cells, data not shown
[6] = test system: H460 cells; assay: Combination index analysis with cisplatin or etoposide; assay type: cell-based, human; details: 48 hours
Method: In addition to its essential role in DNA replication, RPA is required for the repair of bulky DNA adducts as well as DNA breaks induced by various types of exogenous and endogenous agents. […] In order to determine the effect of RPA inhibition on cellular sensitivity to cisplatin, the combination index (CI) (20) was measured. Referring now to FIG. 6. As illustrated in this experiment, compound TDLR-505 acts synergistically with both cisplatin and etoposide in H460 cells. H460 cells were treated with increasing fractions of the IC50 concentration of either cisplatin or etoposide with compound TDLR-505 for 48 hours. After treatment, cells were harvested and analyzed by annexin V/PI flow cytometry. Open circles indicate CI analysis of cisplatin with TDLR-505 and closed circles represent etoposide with TDLR-505. The combination index analysis was performed as previously described (20). The data are presented as the average±SD from (N=3). When cisplatin and compound TDLR-505 were used in combination, cell viability was decreased to a level that was greater than that induced by either agent alone, resulting in a synergy between the two compounds and CI of 0.4 at the highest fraction of cells affected. […] The ability of compound TDLR-505 to synergize with etoposide was also examined. Etoposide induces replication fork arrest and DNA damage response, both cellular processes that require RPA (21).

[7] = Pharmacokinetic analysis in mice; assay type: in vivo; details: for AUC(0-t) / Cmax / Tmax / half-life: mouse, serum
Method: Pharmacokinetic analysis. TDRL-505 was administered to mice at 200 mg/kg either ip or po and blood drawn at 1, 2, 4, 8, 24 and 48 hours post treatment. Serum concentration of TDRL-505 was measured using a HPLC MS/MS protocol and PK parameters analysis using on-compartmental analysis.
Based on the in vivo anticancer activity of TRL-505 a comparison of pharmacokinetic parameters with both ip and po dosing regimens was made. Naive mice were given a single dose and as described in Table 3, blood was drawn at various time intervals and TRDL-505 concentration determined via a HPCL/MSMS protocol developed for this compound.

[8] = test system: H460 cells; assay: H460 NSCLC mouse xenograft model; assay type: in vivo, NOD/SCID mice; details: oral dosing
From the text: Mice that had been implanted with a human NSCLC tumor cells were subjected to a regime of oral dosing. The tumors were allowed to grow to 100 mm3 after which treatment with TDRL-505 or vehicle was commenced.

[9] = test system: H460 NSCLC cell line; assay: Crystal violet staining cell viability assay; assay type: cell-based; details: Homo sapiens, NCI-H460; data not shown
[10] = test system: RPA; assay: Indirect immunofluorescence of RPA in H460 cells; assay type: cell-based, human; details: 50 μM, 3 hours
Method: H460 cells were plated on chamber slides (LabTek) as described above. Cells were then treated for 3 hours with either 50 μM of compound TDLR-505 or vehicle as indicated and following treatment, cells were fixed in 4% paraformaldehyde at 25° C. for 3 minutes followed by washing in 0.2% Triton X-100 for 2 minutes at 4° C. The slides were then blocked in 15% FBS in PBS for 1 hour at 25° C. and then incubated with anti-RPA 34 primary antibody (Neomarkers) at a dilution of 1:500 in 15% FBS for 1 hour. Slides were then washed 3×10 minutes with 15% FBS and then incubated with Alexa Fluor-594 goat-anti-mouse secondary antibody (Invitrogen) at a dilution of 1:300 for 1 hour. Slides were again washed and stained with 300 nM DAPI diluted in PBS-EDTA for five minutes. […] Slides were visualized and images analyzed and quantified using ImageJ software.
These cellular effects seen following treatment with compound TDLR-505 correlate with an inability of RPA to interact with DNA which could then result in numerous possibilities including degradation or redistribution of RPA within the cell. […] Referring now to FIG. 4C, H460 cells were treated with 50 μM compound TDLR-505 or vehicle for 3 hours and analyzed for RPA expression and localization by indirect immunofluorescence using an Alexa Fluor594 secondary antibody (red). […] RPA expression was assessed via western blot analysis probing for the p34 subunit. […]

[11] = test system: RPA p34; assay: Western blot of RPA p34 in H460 cells; assay type: cell-based, human; details: 100 μM, 6 hours, without or with 25 μM etoposide
Method: H460 cells were plated and treated with either vehicle or 100 μM compound TDLR-505 in the presence or absence of 25 μM etoposide for 6 hours and then processed for western blot analysis using a RIPA lysis and extraction procedure. RPA was detected with an anti-RPA p34 antibody (Neomarkers) and goat anti-mouse-HRP secondary (Santa Cruz). Bands were visualized using chemiluminescence detection.
These cellular effects seen following treatment with compound TDLR-505 correlate with an inability of RPA to interact with DNA which could then result in numerous possibilities including degradation or redistribution of RPA within the cell. Indirect immunofluorescence was used to assess how inhibition of RPA binding influences cellular localization. Referring now to FIG. 4C, H460 cells were treated with 50 μM compound TDLR-505 or vehicle for 3 hours and analyzed for RPA expression and localization by indirect immunofluorescence using an Alexa Fluor594 secondary antibody (red). Slides were counter stained with DAPI (blue) and images merged. Magnification of the boxed cells is presented below the low magnification images. […] (FIG. 4C). […] Referring now to FIG. 4D, H460 cells were treated with vehicle or 100 μM compound TDLR-505 without or with etoposide (25 μM) as indicated in the figure. RPA expression was assessed via western blot analysis probing for the p34 subunit. […]

[12] = test system: A549 NSCLC cell line; assay: Cytotoxicity in A549 cells; assay type: cell-based; details: data not shown
[13] = 200 mg/Kg PO, Methylcellulose/DMSO

Sequence of Human RPA (P27694 whole entry): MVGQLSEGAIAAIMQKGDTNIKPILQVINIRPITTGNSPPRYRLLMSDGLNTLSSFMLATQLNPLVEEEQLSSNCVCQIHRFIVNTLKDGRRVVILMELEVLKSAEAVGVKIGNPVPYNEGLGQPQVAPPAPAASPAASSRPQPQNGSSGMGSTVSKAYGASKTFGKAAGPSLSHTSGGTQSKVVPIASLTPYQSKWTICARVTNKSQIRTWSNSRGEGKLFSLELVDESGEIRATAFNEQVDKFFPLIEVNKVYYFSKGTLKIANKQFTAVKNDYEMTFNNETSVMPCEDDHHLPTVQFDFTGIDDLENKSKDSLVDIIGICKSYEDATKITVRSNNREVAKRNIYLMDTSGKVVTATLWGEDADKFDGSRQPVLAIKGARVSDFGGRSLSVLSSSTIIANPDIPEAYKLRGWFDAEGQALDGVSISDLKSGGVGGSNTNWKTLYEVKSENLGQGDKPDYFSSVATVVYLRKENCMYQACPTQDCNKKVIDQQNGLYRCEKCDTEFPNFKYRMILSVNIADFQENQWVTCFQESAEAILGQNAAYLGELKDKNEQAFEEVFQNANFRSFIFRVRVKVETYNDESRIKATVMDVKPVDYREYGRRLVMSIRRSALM
Sequence of Human RPA (P15927 whole entry partner): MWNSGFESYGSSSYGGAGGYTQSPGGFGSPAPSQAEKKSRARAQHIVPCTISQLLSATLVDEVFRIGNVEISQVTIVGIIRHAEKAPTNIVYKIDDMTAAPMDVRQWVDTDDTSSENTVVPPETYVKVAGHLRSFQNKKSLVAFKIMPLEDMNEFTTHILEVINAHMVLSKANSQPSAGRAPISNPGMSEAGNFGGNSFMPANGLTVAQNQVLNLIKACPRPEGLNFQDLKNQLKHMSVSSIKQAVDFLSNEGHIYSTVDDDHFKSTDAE
Sequence of Human RPA (P35244 whole entry partner): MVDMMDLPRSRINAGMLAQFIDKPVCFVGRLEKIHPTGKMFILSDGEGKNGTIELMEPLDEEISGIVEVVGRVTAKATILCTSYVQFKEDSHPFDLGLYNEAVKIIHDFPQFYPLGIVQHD

SMILES: COc1ccc(-c2nn(-c3ccccc3)cc2C2CC(c3ccc(Br)cc3)=NN2C(=O)CCC(=O)O)cc1 (stereo not drawn) [TDRL-523]
cellular activity (in words) [1]: modest cellular activity | IC50 [1]: 31 ± 5.2 µM | IC50 [2]: > 100 µM | inhibition at 100 µM [2]: 36% | inhibition of RPA DNA binding (in words) ([2]; full length RPA heterotrimer): minimal inhibition

SMILES: COc1ccc(C2=NN(C(=O)CCC(=O)O)C(c3cn(-c4ccccc4)nc3-c3ccc(C)cc3)C2)cc1 (stereo not drawn) [TDRL-521]
IC50 [1]: 56.9 ± 6.7 µM | IC50 [2]: 71.7 ± 33.9 µM

IC50 [2]: 20.3 ± 10.7 µM
SMILES: Cc1ccc(C2=NN(C(=O)CCC(=O)O)C(c3cn(-c4ccccc4)nc3-c3ccc(C)cc3)C2)cc1 (stereo not drawn) [TDRL-520]
IC50 [1]: 49.9 ± 2.5 µM

IC50 [2]: > 100 µM | inhibition at 100 µM [2]: 9%
SMILES: CCN(CC)c1ccc(C2CC(c3ccc(Br)cc3)=NN2C(=O)CCC(=O)O)cc1 (stereo not drawn) [TDRL-518]

SMILES: Cc1ccc(-c2nn(-c3ccccc3)cc2C2CC(c3ccc(Br)cc3)=NN2C(=O)CCC(=O)O)cc1 (stereo not drawn) [TDRL-522]
IC50 [1]: 38 ± 32 µM | IC50 [2]: 56.1 ± 6.7 µM

SMILES: CCOc1ccc2cc(C3CC(c4ccc(Br)cc4)=NN3C(=O)CCC(=O)O)c(Cl)nc2c1 (stereo not drawn) [TDRL-505]
cell cycle distribution, asynchronous culture (in words) ([3]; 75 μM, 48 hours): increase in the proportion of cells in G1-phase | cell cycle progression after release from nocodazole G2 arrest (in words) ([3]; 100 μM, 4, 8 and 12 hours): did not enter S-phase even 12 hours post release | well tolerated dose, IP ([4]; ip): up to 400 mg/kg | well tolerated dose, oral ([4]; po): up to 800 mg/kg | cytotoxic activity in PBMCs (in words) [5]: minimal cytotoxic activity | interaction with cisplatin at lower fractions of cells affected (in words) ([6]; CI values greater than one): additive and then antagonistic | interaction with etoposide (in words) ([6]; all fractions of cells affected): synergistic activity | combination index (CI) with cisplatin ([6]; highest fraction of cells affected): 0.4 | Cl/F ([7]; 200 mg/Kg IP, Tween80/DMSO): 8.29 mL/h | Vdss ([7]; 200 mg/Kg IP, Tween80/DMSO): 0.11 L | Cl/F [7, 13]: 202.33 mL/h | Vdss [7, 13]: 0.88 L | AUC(0-t) ([7]; 200 mg/Kg IP, Tween80/DMSO): 577 µg·h/mL | Cmax ([7]; 200 mg/Kg IP, Tween80/DMSO): 31700 ng/mL | Tmax ([7]; 200 mg/Kg IP, Tween80/DMSO): 8 h | half-life ([7]; 200 mg/Kg IP, Tween80/DMSO): 7.13 h | AUC(0-t) [7, 13]: 25 µg·h/mL | Cmax [7, 13]: 6400 ng/mL | Tmax [7, 13]: 1 h | half-life [7, 13]: 2.62 h | IC50 [1]: 30.8 ± 1.7 µM | tumor growth in individual mice vs vehicle (in words) ([8]; FIG. 7B): significant reduction in tumor growth | tumor growth vs vehicle control (in words) ([8]; group mean, FIG. 7A): reduction in tumor growth | IC50 [9]: 64 µM | intensity of RPA staining vs vehicle (in words) [10]: decrease in the intensity of RPA staining | cells with RPA staining intensity >70% of the maximum ([10]; vehicle 23%): 15% | RPA expression (p34 western blot, in words) [11]: not degraded or reduced in expression | cytotoxic effect in A549 cells (in words) [12]: A similar result | IC50 [2]: 13 µM and 12.9 µM
